Results published in PubChem BioAssay AID588472 (The Scripps Research Institute Molecular Screening Center, 2011).

Experiments:
Test in all cases: PubChem AID 588472; call rule not given here
[1] = biological target: Protein-arginine deiminase type-1 (Homo sapiens) (UniProt Q9ULC6); details: recombinant PAD1-4, colorimetric citrullination assay; PAD1
[2] = biological target: Protein-arginine deiminase type-2 (Homo sapiens) (UniProt Q9Y2J8); details: recombinant PAD1-4, colorimetric citrullination assay; PAD2
[3] = biological target: Protein-arginine deiminase type-3 (Homo sapiens) (UniProt Q9ULW8); details: recombinant PAD1-4, colorimetric citrullination assay; PAD3
[4] = biological target: Protein-arginine deiminase type-4 (Homo sapiens) (UniProt Q9UM07); details: recombinant PAD1-4, colorimetric citrullination assay; PAD4

Measured: IC50

Chain of Protein-arginine deiminase type-1 (Homo sapiens) (Q9ULC6 whole entry, looked up): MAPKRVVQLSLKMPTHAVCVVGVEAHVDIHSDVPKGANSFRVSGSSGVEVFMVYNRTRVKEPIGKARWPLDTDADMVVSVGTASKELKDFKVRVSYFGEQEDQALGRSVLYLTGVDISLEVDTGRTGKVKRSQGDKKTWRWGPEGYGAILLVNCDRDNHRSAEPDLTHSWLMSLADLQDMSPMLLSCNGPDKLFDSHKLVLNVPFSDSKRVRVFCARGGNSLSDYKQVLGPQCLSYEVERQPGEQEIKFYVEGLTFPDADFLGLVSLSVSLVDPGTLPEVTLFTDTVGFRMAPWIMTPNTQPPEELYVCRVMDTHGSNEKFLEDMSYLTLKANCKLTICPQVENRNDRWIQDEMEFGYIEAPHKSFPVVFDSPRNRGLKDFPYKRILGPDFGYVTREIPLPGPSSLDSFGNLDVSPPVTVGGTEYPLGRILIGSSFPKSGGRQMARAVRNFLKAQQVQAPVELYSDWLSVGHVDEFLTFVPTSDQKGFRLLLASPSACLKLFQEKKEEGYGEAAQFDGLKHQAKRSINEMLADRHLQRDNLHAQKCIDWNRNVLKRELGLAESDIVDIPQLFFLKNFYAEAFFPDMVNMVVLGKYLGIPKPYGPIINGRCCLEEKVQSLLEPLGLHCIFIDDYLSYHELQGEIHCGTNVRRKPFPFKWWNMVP
Chain of Protein-arginine deiminase type-2 (Homo sapiens) (Q9Y2J8 whole entry, looked up): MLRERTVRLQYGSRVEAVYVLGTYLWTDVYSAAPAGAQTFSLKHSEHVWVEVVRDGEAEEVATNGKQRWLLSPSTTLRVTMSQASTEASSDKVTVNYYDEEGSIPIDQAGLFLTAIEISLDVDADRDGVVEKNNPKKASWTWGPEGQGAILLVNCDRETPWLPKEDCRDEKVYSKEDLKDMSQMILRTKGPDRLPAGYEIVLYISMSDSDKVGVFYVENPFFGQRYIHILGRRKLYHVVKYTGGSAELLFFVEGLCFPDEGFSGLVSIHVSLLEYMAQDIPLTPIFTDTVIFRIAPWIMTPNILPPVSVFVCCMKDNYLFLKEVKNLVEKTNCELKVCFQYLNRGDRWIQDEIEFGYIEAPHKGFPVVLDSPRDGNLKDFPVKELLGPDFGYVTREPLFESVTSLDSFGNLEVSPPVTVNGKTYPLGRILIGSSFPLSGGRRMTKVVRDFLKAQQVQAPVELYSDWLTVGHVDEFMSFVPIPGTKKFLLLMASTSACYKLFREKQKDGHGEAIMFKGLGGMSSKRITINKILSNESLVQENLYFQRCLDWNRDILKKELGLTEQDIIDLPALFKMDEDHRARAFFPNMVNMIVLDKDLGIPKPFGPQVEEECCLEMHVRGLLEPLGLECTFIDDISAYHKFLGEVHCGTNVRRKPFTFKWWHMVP
Chain of Protein-arginine deiminase type-4 (Homo sapiens) (Q9UM07 whole entry, looked up): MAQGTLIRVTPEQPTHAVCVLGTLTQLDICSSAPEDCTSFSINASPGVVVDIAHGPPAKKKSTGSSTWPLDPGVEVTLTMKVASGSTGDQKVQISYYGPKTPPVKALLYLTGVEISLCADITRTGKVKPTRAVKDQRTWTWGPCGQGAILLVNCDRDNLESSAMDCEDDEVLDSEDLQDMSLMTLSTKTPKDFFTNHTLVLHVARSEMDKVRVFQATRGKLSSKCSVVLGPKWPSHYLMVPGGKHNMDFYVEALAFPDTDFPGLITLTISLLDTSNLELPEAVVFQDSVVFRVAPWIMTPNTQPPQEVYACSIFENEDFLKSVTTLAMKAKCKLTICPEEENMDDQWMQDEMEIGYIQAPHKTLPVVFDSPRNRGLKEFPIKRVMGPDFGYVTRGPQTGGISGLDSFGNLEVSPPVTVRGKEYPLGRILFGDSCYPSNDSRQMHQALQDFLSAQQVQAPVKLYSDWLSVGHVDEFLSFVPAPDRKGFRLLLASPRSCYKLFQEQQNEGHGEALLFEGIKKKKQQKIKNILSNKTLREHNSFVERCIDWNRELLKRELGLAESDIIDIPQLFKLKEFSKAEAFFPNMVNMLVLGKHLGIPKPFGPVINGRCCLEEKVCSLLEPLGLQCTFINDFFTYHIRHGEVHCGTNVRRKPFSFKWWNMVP
Chain of Protein-arginine deiminase type-3 (Homo sapiens) (Q9ULW8 whole entry, looked up): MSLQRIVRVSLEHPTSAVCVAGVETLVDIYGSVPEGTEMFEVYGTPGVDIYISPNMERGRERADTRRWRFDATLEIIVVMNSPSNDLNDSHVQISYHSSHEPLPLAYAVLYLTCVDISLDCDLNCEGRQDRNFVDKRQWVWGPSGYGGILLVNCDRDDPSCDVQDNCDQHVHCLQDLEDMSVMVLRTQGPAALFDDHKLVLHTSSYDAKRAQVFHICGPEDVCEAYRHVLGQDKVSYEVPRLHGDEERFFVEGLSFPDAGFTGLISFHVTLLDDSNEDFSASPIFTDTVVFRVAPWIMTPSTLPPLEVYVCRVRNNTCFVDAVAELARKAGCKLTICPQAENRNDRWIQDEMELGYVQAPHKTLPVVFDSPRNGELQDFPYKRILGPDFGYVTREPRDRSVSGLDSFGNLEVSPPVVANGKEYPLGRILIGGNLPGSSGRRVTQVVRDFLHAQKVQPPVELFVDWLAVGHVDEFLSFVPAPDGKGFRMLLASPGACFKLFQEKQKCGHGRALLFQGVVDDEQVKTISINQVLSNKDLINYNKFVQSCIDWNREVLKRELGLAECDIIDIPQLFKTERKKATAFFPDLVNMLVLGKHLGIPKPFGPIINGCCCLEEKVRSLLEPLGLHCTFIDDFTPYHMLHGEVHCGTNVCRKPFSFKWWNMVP

NC1=CC(=O)c2cccnc2C1=O
active: [1] 0.97 µM | [2] 0.74 µM | [3] 0.17 µM | [4] 1 µM
